Laboratory results published in patent US11999727B2 (Tango Therapeutics, Inc., priority 2020, dated 2024).
pIC50: −log10 of the molar value.

Key:
PRMT5 [1] = molecular target: T1, PRMT5 (Homo sapiens, UniProt O14744); test: PRMT5 biochemical IC50 assay with MTA as cofactor; conditions: PRMT5, MTA as cofactor; read-out: MTA IC50
T1 construct: purchased Viva (custom protein)

PRMT5 [2] = molecular target: T1, PRMT5; test: PRMT5 biochemical IC50 assay with SAM as cofactor; conditions: PRMT5, SAM as cofactor; read-out: SAM IC50
[3] = tested on: HAP1 MTAP-intact cell line; test: SDMA in-cell western assay, HAP1 MTAP-intact; format: cell-based; conditions: Homo sapiens, HAP1, SDMA in-cell western, HAP1 MTAP-intact; read-out: MTAP HAP1 intact IC50
Procedure, shortened: (§1)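 Isogenic HAP1 pair: the MTAP-intact line expresses endogenous MTAP, and the deleted line is MTAP-null. Symmetric dimethylarginine was detected by in-cell western and IC50 values derived for each line.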

[4] = tested on: HAP1 MTAP-deleted cell line; test: Viability assay, MTAP-deleted cell line; format: cell-based; conditions: Homo sapiens, HAP1, viability assay, MTAP-deleted cell line; read-out: HAP1 MTAP deleted viability
Excerpt: Table 1 additionally indicates IC50 values in a viability assay for the MTAP-deleted cell line (column 10), indicating the effect of treatment with compound on cell survival.

PRMT5 [5] = molecular target: T1, PRMT5; test: PRMT5 biochemical IC50 assay with no cofactor; conditions: PRMT5, no cofactor; read-out: No Cofactor/rel IC50
Excerpt: Table 1 indicates IC50 values (μM) against PRMT5 for exemplary compounds in the presence of SAM as cofactor, with no cofactor, and with MTA as cofactor, respectively (columns 4-6). […] Ki values can be calculated from the IC50 values as described in the Examples section. As detailed in the Examples section, for the assay performed in the presence of SAM, IC50=Ki×1.5 (Ki=IC50/1.5).

[6] = tested on: HAP1 MTAP-deleted cell line; test: SDMA in-cell western assay, HAP1 MTAP-deleted; format: cell-based; conditions: for pIC50: Homo sapiens, HAP1, SDMA in-cell western, HAP1 MTAP-deleted, read-out: HAP1 MTAP deleted IC50; for MTAP intact/deleted ratio: IC50 ratio HAP1 MTAP-intact / HAP1 MTAP-deleted, SDMA in-cell western
Procedure, shortened: as §1

T1 sequence (O14744 whole entry): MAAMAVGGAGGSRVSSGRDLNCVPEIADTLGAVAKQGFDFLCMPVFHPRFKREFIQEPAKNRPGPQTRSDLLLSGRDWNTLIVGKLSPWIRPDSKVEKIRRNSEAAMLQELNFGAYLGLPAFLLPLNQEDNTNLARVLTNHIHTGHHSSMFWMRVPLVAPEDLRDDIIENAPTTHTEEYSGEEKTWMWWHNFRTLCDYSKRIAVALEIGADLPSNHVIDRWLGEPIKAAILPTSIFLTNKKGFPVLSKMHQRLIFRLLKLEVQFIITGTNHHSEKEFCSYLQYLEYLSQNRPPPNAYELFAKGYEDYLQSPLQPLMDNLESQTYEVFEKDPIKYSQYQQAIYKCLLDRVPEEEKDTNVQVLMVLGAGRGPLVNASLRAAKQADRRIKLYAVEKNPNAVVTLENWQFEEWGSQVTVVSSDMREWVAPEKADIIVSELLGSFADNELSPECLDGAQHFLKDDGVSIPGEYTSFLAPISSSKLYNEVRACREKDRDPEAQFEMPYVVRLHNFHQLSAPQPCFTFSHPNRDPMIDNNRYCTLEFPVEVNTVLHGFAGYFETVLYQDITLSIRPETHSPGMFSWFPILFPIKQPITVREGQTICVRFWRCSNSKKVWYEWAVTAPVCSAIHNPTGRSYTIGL
T1 sequence (Q9BQA1 whole entry partner): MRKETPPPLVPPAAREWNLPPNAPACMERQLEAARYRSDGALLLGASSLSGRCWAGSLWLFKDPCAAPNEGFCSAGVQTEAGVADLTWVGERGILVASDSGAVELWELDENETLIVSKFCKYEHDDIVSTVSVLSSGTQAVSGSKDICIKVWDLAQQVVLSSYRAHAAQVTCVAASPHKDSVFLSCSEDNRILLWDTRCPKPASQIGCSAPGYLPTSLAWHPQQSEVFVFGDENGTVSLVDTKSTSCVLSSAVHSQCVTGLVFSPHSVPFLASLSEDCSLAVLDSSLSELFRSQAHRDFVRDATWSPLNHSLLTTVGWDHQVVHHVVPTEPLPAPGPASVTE

SMILES	pIC50 (PRMT5 [1])	pIC50 (PRMT5 [2])	pIC50 [3]	pIC50 [4]	pIC50 (PRMT5 [5])	pIC50 [6]	MTAP intact/deleted ratio [6]
C[C@@H]1CC[C@@H](c2ccc(Cl)c(N)c2)N(C(=O)C(=O)Nc2cncc(C(N)=O)c2)C1 (racemic) [Compound 280, rac-5-{2-[(2R,5S)-2-(3-Amino-4-chlorophenyl)-5-methylpiperidin-1-yl]-2-oxoacetamido}pyridine-3-carboxamide]	> 7.30	6.30 to 7.30	< 6.00	5.00 to 6.00	6.30 to 7.30	6.00 to 7.00	A (an IC50 ratio greater than or equal to 10 fold)
C[C@@H]1CC[C@@H](c2ccc3c(c2)CCO3)N(C(=O)C(=O)Nc2cncc(C(N)=O)c2)C1 (racemic) [Compound 282, rac-5-{2-[(2R,5S)-2-(2,3-Dihydro-1-benzofuran-5-yl)-5-methylpiperidin-1-yl]-2-oxoacetamido}pyridine-3-carboxamide]	6.30 to 7.30	< 6.30	< 6.00	< 5.00	< 6.30	6.00 to 7.00	A (an IC50 ratio greater than or equal to 10 fold)
Cc1cc(NC(=O)C(=O)N2C[C@H](C(N)=O)CC[C@H]2c2ccccc2)cnc1N (racemic) [Compound 315]	6.30 to 7.30	6.30 to 7.30	< 6.00	< 5.00	6.30 to 7.30	6.00 to 7.00	A (an IC50 ratio greater than or equal to 10 fold)
NC(=O)c1cncc(NC(=O)C(=O)N2C[C@@H](CC(F)(F)F)CC[C@H]2c2ccccc2)c1 (racemic) [Compound 318, 5-[[2-Oxo-2-[(2R,5S)-2-phenyl-5-(2,2,2-trifluoroethyl)-1-piperidyl]acetyl]amino]pyridine-3-carboxamide]	6.30 to 7.30	< 6.30	< 6.00	< 5.00	< 6.30	< 6.00	C (an IC50 ratio of less than 3 fold)
C[C@@H]1CC[C@@H](c2ccc(Cl)c(F)c2)N(C(=O)C(=O)Nc2cncc(C(N)=O)c2)C1 (racemic) [Compound 327, rac-5-{2-[(2R,5S)-2-(4-Chloro-3-fluorophenyl)-5-methylpiperidin-1-yl]-2-oxoacetamido}pyridine-3-carboxamide]	6.30 to 7.30	6.30 to 7.30	< 6.00	5.00 to 6.00	6.30 to 7.30	> 7.00	A (an IC50 ratio greater than or equal to 10 fold)
C[C@@H]1CC[C@@H](c2ccc(Cl)c(C(F)(F)F)c2)N(C(=O)C(=O)Nc2cncc(C(N)=O)c2)C1 (racemic) [Compound 337, rac-5-{2-[(2R,5S)-2-[4-Chloro-3-(trifluoromethyl)phenyl]-5-methylpiperidin-1-yl]-2-oxoacetamido}pyridine-3-carboxamide]	6.30 to 7.30	< 6.30	< 6.00	5.00 to 6.00	6.30 to 7.30	6.00 to 7.00	A (an IC50 ratio greater than or equal to 10 fold)
C[C@@H]1CC[C@@H](c2ccc(F)c(Cl)c2)N(C(=O)C(=O)Nc2cncc(C(N)=O)c2)C1 (racemic) [Compound 338, rac-5-{2-[(2R,5S)-2-(3-Chloro-4-fluorophenyl)-5-methylpiperidin-1-yl]-2-oxoacetamido}pyridine-3-carboxamide]	6.30 to 7.30	6.30 to 7.30	< 6.00	5.00 to 6.00	6.30 to 7.30	> 7.00	A (an IC50 ratio greater than or equal to 10 fold)
C[C@@H]1CC[C@@H](c2ccc3c(c2)CCCO3)N(C(=O)C(=O)Nc2cncc(C(N)=O)c2)C1 (racemic) [Compound 341, rac-5-{2-[(2R,5S)-2-(3,4-Dihydro-2H-1-benzopyran-6-yl)-5-methylpiperidin-1-yl]-2-oxoacetamido}pyridine-3-carboxamide]	6.30 to 7.30	6.30 to 7.30	< 6.00	5.00 to 6.00	6.30 to 7.30	> 7.00	A (an IC50 ratio greater than or equal to 10 fold)
NC(=O)c1cncc(NC(=O)C(=O)N2C[C@@H](CC(F)(F)F)CC[C@@H]2c2ccccc2)c1 (racemic) [Compound 342, 5-[[2-Oxo-2-[(2S,5S)-2-phenyl-5-(2,2,2-trifluoroethyl)-1-piperidyl]acetyl]amino]pyridine-3-carboxamide]	6.30 to 7.30	6.30 to 7.30	< 6.00	< 5.00	< 6.30	6.00 to 7.00	A (an IC50 ratio greater than or equal to 10 fold)
NC(=O)c1cncc(NC(=O)C(=O)N2C[C@@H](O)CC[C@@H]2c2ccccc2)c1 (racemic) [Compound 349, 5-[[2-[(2R,5S)-5-Hydroxy-2-phenyl-1-piperidyl]-2-oxo-acetyl]amino]pyridine-3-carboxamide]	6.30 to 7.30	< 6.30	< 6.00	< 5.00	< 6.30	< 6.00	C* (an IC50 ratio of less than 3 fold)
C[C@@H]1CC[C@@H](c2ccc3c(c2)OCC3)N(C(=O)C(=O)Nc2cncc(C(N)=O)c2)C1 (racemic) [Compound 405, rac-5-{2-[(2R,5S)-2-(2,3-Dihydro-1-benzofuran-6-yl)-5-methylpiperidin-1-yl]-2-oxoacetamido}pyridine-3-carboxamide]	6.30 to 7.30	6.30 to 7.30	< 6.00	5.00 to 6.00	6.30 to 7.30	> 7.00	A (an IC50 ratio greater than or equal to 10 fold)
C[C@@H]1CC[C@@H](c2ccc3sccc3c2)N(C(=O)C(=O)Nc2cncc(C(N)=O)c2)C1 (racemic) [Compound 409, rac-5-[[2-[(2S,5R)-2-(benzothiophen-5-yl)-5-methyl-1-piperidyl]-2-oxo-acetyl]amino]pyridine-3-carboxamide]	> 7.30	6.30 to 7.30	< 6.00	5.00 to 6.00	6.30 to 7.30	> 7.00	A (an IC50 ratio greater than or equal to 10 fold)
C[C@@H]1CC[C@H](c2ccc(NCC(=O)N(C)C)cc2)N(C(=O)C(=O)Nc2cncc(C(N)=O)c2)C1 (racemic) [Compound 422, 5-[[2-[(2R,5R)-2-[4-[[2-(Dimethylamino)-2-oxo-ethyl]amino]phenyl]-5-methyl-1-piperidyl]-2-oxo-acetyl]amino]pyridine-3-carboxamide]	6.30 to 7.30	6.30 to 7.30	< 6.00	< 5.00	< 6.30	6.00 to 7.00	A (an IC50 ratio greater than or equal to 10 fold)
C[C@@H]1CC[C@H](c2ccc(N[C@@H]3CCN(C)C3=O)cc2)N(C(=O)C(=O)Nc2cncc(C(N)=O)c2)C1 (racemic) [Compound 427, 5-[[2-[(2R,5R)-5-Methyl-2-[4-[[(3R)-1-methyl-2-oxo-pyrrolidin-3-yl]amino]phenyl]-1-piperidyl]-2-oxo-acetyl]amino]pyridine-3-carboxamide]	6.30 to 7.30	6.30 to 7.30	< 6.00	< 5.00	6.30 to 7.30	6.00 to 7.00	A (an IC50 ratio greater than or equal to 10 fold)
COc1cc(OC)cc([C@@H]2CC[C@@H](C)CN2C(=O)C(=O)Nc2cncc(C(N)=O)c2)c1 (racemic) [Compound 428, rac-5-{2-[(2R,5S)-2-(3,5-Dimethoxyphenyl)-5-methylpiperidin-1-yl]-2-oxoacetamido}pyridine-3-carboxamide]	6.30 to 7.30	< 6.30	< 6.00	< 5.00	< 6.30	6.00 to 7.00	A (an IC50 ratio greater than or equal to 10 fold)
NC(=O)c1cncc(NC(=O)C(=O)N2CC[C@@H]3CCCC[C@@H]3C2)c1 (racemic) [Compound 429, 5-(2-(octahydroisoquinolin-2(1B)-yl)-2-oxoacetamido)nicotinamide]	6.30 to 7.30	6.30 to 7.30	< 6.00	< 5.00	< 6.30	< 6.00	B (an IC50 ratio greater than or equal to 3 fold but lower than 10 fold)
C[C@@H]1CC[C@@H](c2ccc(N[C@@H]3CCN(C)C3=O)cc2)N(C(=O)C(=O)Nc2cncc(C(N)=O)c2)C1 (racemic) [Compound 430, 5-[[2-[(2S,5R)-5-Methyl-2-[4-[[(3R)-1-methyl-2-oxo-pyrrolidin-3-yl]amino]phenyl]-1-piperidyl]-2-oxo-acetyl]amino]pyridine-3-carboxamide]	6.30 to 7.30	6.30 to 7.30	< 6.00	5.00 to 6.00	6.30 to 7.30	> 7.00	A (an IC50 ratio greater than or equal to 10 fold)
